According to BindingDB's records for doi:10.1016/j.bmcl.2016.10.061 (Ocean University of China, 2016):
pIC50: −log10 of the molar value.

Biological target: Proto-oncogene tyrosine-protein kinase receptor Ret (Homo sapiens) (UniProt P07949)
Experiment: Inhibition of CCDC6/RET (unknown origin) expressed in mouse BaF3 cells assessed as reduction in cell proliferation after 72 hrs by MTT assay

Chain of Proto-oncogene tyrosine-protein kinase receptor Ret (Homo sapiens) (P07949 whole entry, looked up): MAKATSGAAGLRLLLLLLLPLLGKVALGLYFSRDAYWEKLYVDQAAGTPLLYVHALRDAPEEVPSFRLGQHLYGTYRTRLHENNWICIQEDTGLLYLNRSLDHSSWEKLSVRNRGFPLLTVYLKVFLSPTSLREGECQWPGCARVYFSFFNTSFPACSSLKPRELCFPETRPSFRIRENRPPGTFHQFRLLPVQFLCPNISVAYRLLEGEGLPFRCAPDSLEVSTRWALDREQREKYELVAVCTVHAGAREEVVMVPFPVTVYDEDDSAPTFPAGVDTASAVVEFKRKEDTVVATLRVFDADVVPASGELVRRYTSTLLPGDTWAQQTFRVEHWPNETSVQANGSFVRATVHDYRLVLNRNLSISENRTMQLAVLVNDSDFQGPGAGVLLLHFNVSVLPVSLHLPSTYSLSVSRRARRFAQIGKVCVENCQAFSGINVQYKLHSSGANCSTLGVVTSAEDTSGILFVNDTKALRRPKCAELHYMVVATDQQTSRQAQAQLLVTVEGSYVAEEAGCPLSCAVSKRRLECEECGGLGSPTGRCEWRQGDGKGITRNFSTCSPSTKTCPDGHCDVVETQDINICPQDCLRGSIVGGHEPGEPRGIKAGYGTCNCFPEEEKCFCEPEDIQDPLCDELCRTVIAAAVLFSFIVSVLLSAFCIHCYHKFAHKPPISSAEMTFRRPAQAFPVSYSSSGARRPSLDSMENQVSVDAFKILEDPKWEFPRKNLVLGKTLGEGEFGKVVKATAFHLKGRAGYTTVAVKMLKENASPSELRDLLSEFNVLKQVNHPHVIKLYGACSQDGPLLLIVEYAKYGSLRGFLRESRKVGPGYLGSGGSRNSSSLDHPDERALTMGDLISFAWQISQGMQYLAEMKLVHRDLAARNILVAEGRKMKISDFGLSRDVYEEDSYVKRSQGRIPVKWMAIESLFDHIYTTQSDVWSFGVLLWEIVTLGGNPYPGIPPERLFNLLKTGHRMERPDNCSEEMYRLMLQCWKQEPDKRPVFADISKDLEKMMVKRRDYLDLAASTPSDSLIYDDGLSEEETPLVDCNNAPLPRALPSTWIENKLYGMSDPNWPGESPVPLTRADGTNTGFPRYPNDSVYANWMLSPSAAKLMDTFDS

pIC50: 6.39
SMILES: CN1CCN(Cc2ccc(NC(=O)c3ccc(Cl)c(-c4noc(-c5cncc(-c6cnn(C)c6)c5)n4)c3)cc2C(F)(F)F)CC1
